The values below come from US4169157A, “Therapeutic preparations for peptic ulcers comprising aliphatic ketone derivative” (Eisai Co., Ltd., priority 1977, dated 1979).

“Also recorded” adds a separate entry of the source.

Assay [1] relates to cold and restraint stress ulcer. The assay can be described thus: Effect on the cold and restraint stress ulcer. It is filed as in vivo, SD strain female rats. Particulars: 200 mg/kg oral; for Inhibition rate to the development of the ulcer (in words): compared with control compound A (Gefarnate); for inhibition in vivo at 200 mg/kg: 2 h, read-out: Inhibition rate to the development of the cold and restraint stress ulcer. As for the experimental part: Preventive effect of the test compounds on the development of the cold and restraint stress ulcer was estimated according to Levine's method [Proc. Soc. Exptl. Biol. Med., 124, 1221 (1967)], using SD strain female rats weighing about 170 g, and being 8-10 weeks old, as test animals.
All test compounds were suspended in 5% gum arabic solution and one drop of Tween 80, and the suspension was orally administered to rat. A dose amounted to 200 mg/kg, and the volume of the administrative dose was controlled to 0.5 ml/100 g B. W. As a blank test, 5% gum arabic solution was administered.
The administration of the test compounds and the blank test were carried out 30 minutes before adopting the cold and restraint stress.
The effect of the test compounds was estimated by finding the value (ulcer index) of the total length of the erosion observed in the glandular portion of the test animals two hours after the cold and restraint stress, and calculating the effect of the administration of said compounds as the inhibition rate of the development of the ulcer from the value. [formula]

Assay [2] has as its system subacute aspirin ulcer. Description: Effect on subacute aspirin ulcer. In kind it is in vivo, SD strain male rats. Particulars: for inhibition in vivo at 200 mg/kg: 144 h, read-out: Inhibition rate to the development of the subacute aspirin ulcer; for Inhibitory effect on subacute aspirin ulcer (in words): 200 mg/kg/day for five days. As for the experimental part: Aspirin in amount of 200 mg/kg/day was orally administered to SD strain male rats (body weight of about 250 g, nine weeks old) after abstinence from the food for 24 hours. The rats were fed for one hour, after one hour from said administration, and again abstained from the food. The administration of aspirin was continued for five days in the same schedule as mentioned above. The effect was estimated on the sixth day.
All the test compounds were emulsified with 5% gum arabic solution and one drop of Tween 80. The emulsions were administered continuously for five days, together with aspirin to rat. The dose amounted to 200 mg/kg/day, and the volume of the dose was controlled to 0.5 ml/100 g B. W. The blank test was similarly effected as pharmacological experiment 1.
The effect of the test compound was estimated by finding the value (ulcer index) of the total lengths of erosions developed in the glandular portion of the test animal with respect to the test compounds group and the blank test group, respectively, and calculating from said value the effect of the administration of the test compounds as the inhibition rate.

In assay [3] the test system is histamine ulcer. The assay can be described thus: Effect on the Histamine ulcer. Particulars: 100 mg/kg oral; for inhibition in vivo at 100 mg/kg: read-out: Inhibition rate to the development of the histamine ulcer. It is filed as in vivo, SD strain male rats. The protocol:
According to the Okabe et al. method [[…] 26 (1) 89-93 (1975)], the inhibitory effects of the test compounds on the development of ulcer due to the administration of histamine were estimated using SD strain male rats weighing about 350 g as the test animals.
The methods for administration and estimation of the effect of the test compounds are carried out according to the procedure in pharmacological experiment 1.
A dose of the test compounds amounted to 100 mg/kg.
The histamine was administered intraperitoneally to the test animal in an amount of 200 mg/kg as the hydrochloride.
The effect was estimated 4 hours after the administration of the histamine.

Assay [4] relates to indomethacin ulcer. The assay can be described thus: Effect on Indomethacin ulcer. It is filed as in vivo, SD strain female rats. Particulars: for inhibition in vivo at 100 mg/kg: 4 h, read-out: Inhibition rate on the development of indomethacin ulcer. The protocol:
The inhibitory effects of the test compounds on the development of the ulcer due to the administration of indomethacin were estimated using SD strain female rats weighing about 200 g as the test animals.
The methods for administration and estimation of the effect of the test compounds are carried out according to the procedure in pharmacological experiment 2.
The dose of the test compound amounted to 100 mg/kg. The indomethacin was orally administered in the dose of 20 mg/kg. The effect was estimated four hours after the administration of indomethacin.

Assay [5] relates to peptic ulcers. The assay can be described thus: Therapeutic effect on peptic ulcers (overall result of the pharmacological experiments). It is filed as in vivo, SD strain rats. Particulars: from the results of the above-described pharmacological experiments.
The mark [6] stands for this setting: 30 minutes before stress, ulcer index two hours after stress, rat.
[7] abbreviates: 200 mg/kg/day for five days together with aspirin 200 mg/kg/day oral, estimated on sixth day, rat.
[8] abbreviates: histamine 200 mg/kg intraperitoneally, 4 hours after histamine, rat.
Setting [9] is: indomethacin 20 mg/kg oral, four hours after indomethacin, rat.

As for “6,10,14-trimethyl-5,9,13-octadecatriene-2-on [subject compound A]”, the “Inhibition rate to the development of the cold and restraint stress ulcer” value in assay [1] (setting [6]) was determined as 71.4%. Further, the “Inhibition rate to the development of the ulcer (in words)” value (“Inhibition rate … (in words)” below) in assay [1] was “higher than that of the control compound A”. For the same molecule, the “Inhibition rate to the development of the subacute aspirin ulcer” value in assay [2] (setting [7]) is given as 56.7%. Besides, the “Effect on the histamine ulcer of rat (in words)” value (“Effect on the histamine ulcer” below) in assay [3] is reported as “more inhibitory effect than that of the control compound”. In addition, the “Inhibition rate to the development of the histamine ulcer” value in assay [3] (setting [8]) was found to be 50.4%. The “Inhibition rate on the development of indomethacin ulcer” value in assay [4] (100 mg/kg, indomethacin 20 mg/kg oral, four hours after indomethacin, rat) was found to be 75.4%. In assay [5], the “Therapeutic effect on the peptic ulcers (in words)” value (from here on “Therapeutic effect”) was “high therapeutic effect on the peptic ulcers”.

With `CC(C)=CCCC(C)=CCCC(C)=CCCC(=O)OCC=C(C)CCC=C(C)C` [control compound A, reference compound], the results for the inhibition in vivo at 200 mg/kg in assay [1] (setting [6]) and in assay [2] (setting [7]) were 47.2% and 21%, respectively. The “Effect on the histamine ulcer” value in assay [3] was “no appreciable effect”. In addition, the inhibition in vivo at 100 mg/kg in assay [3] (setting [8]) worked out at 15.4%; in assay [4] (setting [9]) it was 45%.

Turning to `CC(=O)CCC=C(C)CCC=C(C)CCC=C(C)CCC=C(C)C` [subject compound B, 6,10,14,18-tetramethyl-5,9,13,17-nonadecatetraene-2-on], the “Inhibition rate … (in words)” value in assay [1] is reported as “higher than that of the control compound A; also recorded: particularly the most effective compound”. The inhibition in vivo at 200 mg/kg in assay [1] (setting [6]) is 75.7%; in assay [2] (setting [7]), 73.2%. Besides, the “Inhibitory effect on subacute aspirin ulcer (in words)” value in assay [2] is recorded as “Inhibitory effect was shown”. Moreover, the “Effect on the histamine ulcer” value in assay [3] is given as “more inhibitory effect than that of the control compound”. The inhibition in vivo at 100 mg/kg was 53.8% in assay [3] (setting [8]) and 91.3% in assay [4] (setting [9]). Moreover, the “Inhibitory effect on the development of the indomethacin ulcer (in words)” value (shortened to “Inhibitory effect on the development”) in assay [4] (100 mg/kg) was “Particularly high inhibitory effect”. In assay [5], the “Therapeutic effect” value is on record as “high therapeutic effect on the peptic ulcers”.

In the case of `CC(C)=CCCC(C)=CCCC(C)=CCCC(C)=CCCC(=O)C(C)C` [subject compound C, 2,7,11,15,19-pentamethyl-6,10,14,18-eicosatetraene-3-on], the “Inhibition rate … (in words)” value in assay [1] is recorded as “higher than that of the control compound A”. For the same molecule, the inhibition in vivo at 200 mg/kg in assay [1] (setting [6]) is 67.1%; in assay [2] (setting [7]), 50.9%. Moreover, the results for the inhibition in vivo at 100 mg/kg in assay [3] (setting [8]) and in assay [4] (setting [9]) were 44.7% and 86.7%, respectively. The “Inhibitory effect on the development” value in assay [4] (100 mg/kg) is “Particularly high inhibitory effect”. Further, in assay [5], the “Therapeutic effect” value is reported as “high therapeutic effect on the peptic ulcers”.

Consider `CC(=O)CCC=C(C)CCCC(C)CCCC(C)CCCC(C)C` (stereo not shown) [subject compound D, 6,10,14,18-tetramethyl-5-nonadecaene-2-on], for which, in assay [1], the “Inhibition rate … (in words)” value is “higher than that of the control compound A”. The inhibition in vivo at 200 mg/kg was 72% in assay [1] (setting [6]) and 61.8% in assay [2] (setting [7]). Also, the “Inhibitory effect on subacute aspirin ulcer (in words)” value in assay [2] was “Inhibitory effect was shown”. For the same molecule, the inhibition in vivo at 100 mg/kg in assay [3] (setting [8]) amounted to 35.2%; in assay [4] (setting [9]), 75.5%. In assay [5], the “Therapeutic effect” value is “high therapeutic effect on the peptic ulcers”.

Consider `CC(=O)CCCC(C)CCCC(C)CCCC(C)CCCC(C)C` (stereo not shown) [subject compound E, 6,10,14,18-tetramethyl-nonadecane-2-on], for which, in assay [1], the “Inhibition rate … (in words)” value was “higher than that of the control compound A”. Also, the values for the inhibition in vivo at 200 mg/kg in assay [1] (setting [6]) and in assay [2] (setting [7]) were 67.8% and 48.5%, respectively. The inhibition in vivo at 100 mg/kg is 22.4% in assay [3] (setting [8]) and 71.1% in assay [4] (setting [9]). Moreover, in assay [5], the “Therapeutic effect” value is reported as “high therapeutic effect on the peptic ulcers”.

Turning to `CCCC(=O)CCC=C(C)CCC=C(C)CCC=C(C)CCC=C(C)C` [subject compound F, 8,12,16,20-tetramethyl-7,11,15,19-heneicosatetraene-4-on], the “Inhibition rate … (in words)” value in assay [1] is on record as “higher than that of the control compound A”. In addition, the values for the inhibition in vivo at 200 mg/kg in assay [1] (setting [6]) and in assay [2] (setting [7]) were 69.5% and 52.7%, respectively. Further, in assay [3], the “Effect on the histamine ulcer” value is listed as “more inhibitory effect than that of the control compound”. For the same molecule, the inhibition in vivo at 100 mg/kg came out at 49% in assay [3] (setting [8]) and 88.5% in assay [4] (setting [9]). Besides, the “Inhibitory effect on the development” value in assay [4] (100 mg/kg) is recorded as “Particularly high inhibitory effect”. In assay [5], the “Therapeutic effect” value was “high therapeutic effect on the peptic ulcers”.

Turning to `CC(=O)C(CC=C(C)CCC=C(C)CCC=C(C)CCC=C(C)C)C(C)=O` [subject compound G, 3-acetyl-6,10,14,18-tetramethyl-5,9,13,17-nonadecatetraene-2-on], the “Inhibition rate … (in words)” value in assay [1] was “higher than that of the control compound A”. Also, the figures for the inhibition in vivo at 200 mg/kg in assay [1] (setting [6]) and in assay [2] (setting [7]) were 70.5% and 64.5%, respectively. Further, the figures for the inhibition in vivo at 100 mg/kg in assay [3] (setting [8]) and in assay [4] (setting [9]) were 40.8% and 64.9%, respectively. Moreover, the “Therapeutic effect” value in assay [5] is listed as “high therapeutic effect on the peptic ulcers”.
